Results reported in US7608630B2, “Marasmius androsaceus L.es Fr extract, piperidone derivative, and their use for the preparation of hypertensives” (Hainan Yangpu New Special Pharmaceutical Co., Ltd., priority 2004, dated 2009).
Values joined by “and” are separate entries in the source; they are usually repeats but may differ in a detail not shown here. Equal values may be shown once.

Key:
[1] = tested on: blood pressure of SHR rat; experiment: Reduction of blood pressure of anesthetized SHR rat; assay type: in vivo, spontaneously hypertensive rat (SHR); conditions: for Diastolic pressure / Systolic pressure: 10 mg/kg intravenous
Experimental: (§1) A spontaneously hypertensive rat (SHR) was anesthetized with 40 mg/ml pentobarbital, and fixed by its back on an experimental stand. The skin at its neck was cut open after removing hair, and thereafter the right common carotid artery was separated with its proximal end being clamped by a artery clamp and its axifugal end being ligated by a thread. A V-shape cut was made with scissors at the axifugal end, into which an arterial cannula filled with heparin physiological saline was inserted. The arterial cannula was connected with a blood pressure transducer, and then the blood pressure transducer was connected to a computer-controlled three-way physiological-pharmacological recorder. The right femoral vein of the rat was separated and intubated for the injection of a drug. When the blood pressure became stable (i.e., the blood pressure contraction curve became straight), the rat was administered by intravenous route.

[2] = tested on: ileum smooth muscle of guinea pig; experiment: Effects on ileum smooth muscle of guinea pig (automatic rhythmic contraction of isolated ileum section)
Experimental: The section was clamped at its both ends with frog heart clips, and placed in a perfusion tank with the lower end being fixed at the bottom of the tank and the top end being connected by a thread to a tensile transducer of a two-way electrophysiolograph, so that the automatic rhythmic contraction of the ileum section was recorded. The Tai's nutrient solution in the tank was kept at a temperature of 35° C., into which pure […] was bubbled. […] The normal contraction curve of the ileum section was firstly recorded using isoprenaline as a positive control.

blood pressure of cats = experiment: Reduction of blood pressure of cat; assay type: in vivo; conditions: for Average Diastolic pressure / Average Systolic pressure / Diastolic pressure, Animal 1-4 individually / Systolic pressure, Animal 1-4 individually: cats, 5 mg/kg iv; for Diastolic pressure, Animal 1-4 individually / Systolic pressure, Animal 1-4 individually: 5 mg/kg
Experimental: as §1
Five cats of 2.5-3.2 kg were administered orally and intravenously respectively according to the method in Example 8, and then their systolic pressure and diastolic pressure were determined using normal cats non-administered as a control group.

[3] = SHR rat, 5 min after administration
[4] = SHR rat, 60 min after administration
[5] = SHR rat, 120 min after administration
[6] = SHR rat, 240 min after administration

SMILES: CC1(C)CNCC(C)(C)C1=O [Compound of formula II, 3,3,5,5-tetramethyl-4-piperidone]
- effect of reducing blood pressure ([1]; 5-20 mg/kg, model of anesthetic rat): very obvious effect of reducing blood pressure
- Diastolic pressure [1, 3]: 105 ± 11 mm/Hg
- Systolic pressure [1, 3]: 141 ± 9.2 mm/Hg
- Diastolic pressure [1, 4]: 84 ± 11 mm/Hg
- Systolic pressure [1, 4]: 120 ± 12 mm/Hg
- Diastolic pressure [1, 5]: 83 ± 21 mm/Hg
- Systolic pressure [1, 5]: 125 ± 14 mm/Hg
- Diastolic pressure [1, 6]: 110 ± 18 mm/Hg
- Systolic pressure [1, 6]: 163 ± 12 mm/Hg
- Diastolic pressure ([1]; SHR rat, before administration): 124 ± 12 mm/Hg
- Systolic pressure ([1]; SHR rat, before administration): 174 ± 11 mm/Hg
- reduction of systolic pressure and diastolic pressure ([1]; SHR rat, dosage range 10-200 mg/kg, intravenous): could obviously reduce the systolic pressure and diastolic pressure of SHR rat
- Relaxation Time ([2]; concentration 1 × 10^−4 mg/ml): 7 h
- Time of taking effect ([2]; concentration 1 × 10^−4 mg/ml): 2 min
- inhibition of the automatic rhythmic contraction of ileum section ([2]; concentration range 5×10^−4 to 10×10^−2 mg/ml): inhibit the automatic rhythmic contraction of ileum section
- inhibition of the automatic rhythmic contraction of the ileum section ([2]; different concentrations): could inhibit the automatic rhythmic contraction of the ileum section
- effect of reducing blood pressure (blood pressure of cats; 5-20 mg/kg, model of anesthetic cat): very obvious effect of reducing blood pressure
- Average Diastolic pressure (blood pressure of cats; 10 min after administration): 106 mmHg
- Average Systolic pressure (blood pressure of cats; 10 min after administration): 135.5 mmHg
- Diastolic pressure, Animal 1-4 individually (blood pressure of cats; 10 min after administration): 84 mmHg and 93 mmHg and 146 mmHg and 101 mmHg
- Systolic pressure, Animal 1-4 individually (blood pressure of cats; 10 min after administration): 100 mmHg and 110 mmHg and 182 mmHg and 150 mmHg
- Average Diastolic pressure (blood pressure of cats; 20 min after administration): 105.75 mmHg
- Average Systolic pressure (blood pressure of cats; 20 min after administration): 139.75 mmHg
- Diastolic pressure, Animal 1-4 individually (blood pressure of cats; 20 min after administration): 79 mmHg and 109 mmHg and 137 mmHg and 98 mmHg
- Systolic pressure, Animal 1-4 individually (blood pressure of cats; 20 min after administration): 111 mmHg and 126 mmHg and 172 mmHg and 150 mmHg
- Average Diastolic pressure (blood pressure of cats; 30 min after administration): 106.25 mmHg
- Average Systolic pressure (blood pressure of cats; 30 min after administration): 141.25 mmHg
- Diastolic pressure, Animal 1-4 individually (blood pressure of cats; 30 min after administration): 80 mmHg and 111 mmHg and 136 mmHg and 98 mmHg
- Systolic pressure, Animal 1-4 individually (blood pressure of cats; 30 min after administration): 119 mmHg and 137 mmHg and 173 mmHg and 136 mmHg
- Average Diastolic pressure (blood pressure of cats; 40 min after administration): 110.5 mmHg
- Average Systolic pressure (blood pressure of cats; 40 min after administration): 144.5 mmHg
- Diastolic pressure, Animal 1-4 individually (blood pressure of cats; 40 min after administration): 100 mmHg and 111 mmHg and 134 mmHg and 97 mmHg
- Systolic pressure, Animal 1-4 individually (blood pressure of cats; 40 min after administration): 134 mmHg and 137 mmHg and 172 mmHg and 135 mmHg
- Average Diastolic pressure (blood pressure of cats; 50 min after administration): 117 mmHg
- Average Systolic pressure (blood pressure of cats; 50 min after administration): 152.25 mmHg
- Diastolic pressure, Animal 1-4 individually (blood pressure of cats; 50 min after administration): 117 mmHg and 120 mmHg and 134 mmHg and 97 mmHg
- Systolic pressure, Animal 1-4 individually (blood pressure of cats; 50 min after administration): 156 mmHg and 147 mmHg and 171 mmHg and 135 mmHg
- Average Diastolic pressure (blood pressure of cats; 60 min after administration): 118.25 mmHg
- Average Systolic pressure (blood pressure of cats; 60 min after administration): 158 mmHg
- Diastolic pressure, Animal 1-4 individually (blood pressure of cats; 60 min after administration): 131 mmHg and 120 mmHg and 130 mmHg and 92 mmHg
- Systolic pressure, Animal 1-4 individually (blood pressure of cats; 60 min after administration): 174 mmHg (2×) and 142 mmHg (2×)
- Average Diastolic pressure (blood pressure of cats; 90 min after administration): 121.75 mmHg
- Average Systolic pressure (blood pressure of cats; 90 min after administration): 164.5 mmHg
- Diastolic pressure, Animal 1-4 individually (blood pressure of cats; 90 min after administration): 122 mmHg and 129 mmHg and 144 mmHg and 92 mmHg
- Systolic pressure, Animal 1-4 individually (blood pressure of cats; 90 min after administration): 170 mmHg and 167 mmHg and 178 mmHg and 143 mmHg
- Average Diastolic pressure (blood pressure of cats; 120 min after administration): 124 mmHg
- Average Systolic pressure (blood pressure of cats; 120 min after administration): 174.5 mmHg
- Diastolic pressure, Animal 1-4 individually (blood pressure of cats; 120 min after administration): 123 mmHg and 129 mmHg and 148 mmHg and 96 mmHg
- Systolic pressure, Animal 1-4 individually (blood pressure of cats; 120 min after administration): 182 mmHg and 167 mmHg and 202 mmHg and 147 mmHg
- Average Diastolic pressure (blood pressure of cats; 150 min after administration): 127.5 mmHg
- Average Systolic pressure (blood pressure of cats; 150 min after administration): 177 mmHg
- Diastolic pressure, Animal 1-4 individually (blood pressure of cats; 150 min after administration): 124 mmHg and 140 mmHg and 148 mmHg and 98 mmHg
- Systolic pressure, Animal 1-4 individually (blood pressure of cats; 150 min after administration): 186 mmHg and 170 mmHg and 202 mmHg and 150 mmHg
- Average Diastolic pressure (blood pressure of cats; 180 min after administration): 133.75 mmHg
- Average Systolic pressure (blood pressure of cats; 180 min after administration): 185 mmHg
- Diastolic pressure, Animal 1-4 individually (blood pressure of cats; 180 min after administration): 123 mmHg and 148 mmHg and 156 mmHg and 108 mmHg
- Systolic pressure, Animal 1-4 individually (blood pressure of cats; 180 min after administration): 187 mmHg and 176 mmHg and 212 mmHg and 165 mmHg
